Like-named read-outs stand apart in the source and are kept apart here. Marks after values point to notes of the source that are not given here.
Test system: C57BL/6 mouse model having STZ-HFD feed-induced diabetes combined NASH
Assay type: in vivo
Conditions: STZ+HFD C57BL/6 mice; for Fasting blood glucose / Ballooning lesion (score) / Inflammatory cell infiltration (score) / Steatosis (score) / Total score of NAS / Fibrosis percentage / % HbAC (glycosylated hemoglobin) / ALT / AST / HDL-c / LDL-c / TC / TG / Percentage of decrease in % HbAC: Mean ± SEM; for Ballooning lesion (score) / Inflammatory cell infiltration (score) / Steatosis (score) / Total score of NAS / Fibrosis percentage / % HbAC (glycosylated hemoglobin) / ALT / AST / HDL-c / LDL-c / TC / TG: 7 weeks; for Ballooning lesion (score) / Inflammatory cell infiltration (score) / Steatosis (score) / Total score of NAS: liver H&E; for Ballooning lesion (score) / Inflammatory cell infiltration (score) / Steatosis (score): NAS criteria; for Fibrosis percentage: liver sirius red staining; for % HbAC (glycosylated hemoglobin): peripheral blood; for ALT / AST / HDL-c / LDL-c / TC / TG: serum; for HbA1c % decreased by, taking the HbA1C % of the model group as the baseline value: FIG. 20; for Percentage of decrease in % HbAC: model group as baseline; for Number of animal deaths: 13 enrolled
Procedure: According to the dosage regimen, a certain amount of Tirzepatide and BG128 were weighed and the vehicle (pH=7.0, 20 mM sodium citrate buffer) was added to formulated to the corresponding concentration.
• Germline: C57BL/6 • Grade: SPF level • Number and gender: 30 pregnant female mice • Supplier: Shanghai Jihui Laboratory Animal Care Co., Ltd. 1.3.2 Animal Feeding Management
Animals were kept in the barrier system, the environmental conditions in the animal room were controlled as room temperature of 20° C.-26° C. and humidity of 40%-70%, and the breeders recorded once every morning and afternoon. Free drinking and normal feeding.
Newborn male mice were subcutaneously injected with STZ (100 μg/mouse) within 48 h of birth and fed by the female mice for four weeks, then the fasting blood glucose of the male mice was determined.
10 newborn male mice were selected, without STZ injection, and fed by the female mice for four weeks. The male mice were separated into cages and fed with normal maintenance feed and used as the normal control group; other mice were fed with HFD feed for one week, the fasting blood glucose of the animals was determined, and according to the fasting blood glucose and body weight, the animals were randomly grouped into: normal control group, model group, Tirzepatide—0.15 mg/kg group, BG128—0.05 mg/kg group, BG128—0.15 mg/kg group, and BG128—0.5 mg/kg group, and see Table 12 for details.
Administration began on the first day of week 2 of HFD feed feeding, and the experiment was ended after 7 weeks of continuous administration.
Observation was performed at the start of the experiment once a day until the end of the experiment.
The animals were weighed once every three days from the time of feeding with HFD feed until the end of the experiment.
The food intake of the animals was recorded from the time of feeding with HFD feed until the end of the experiment. The remaining amount was weighed before administration each time.
The fasting blood glucose was determined using the Roche blood glucose meter after 4 weeks of breast-feeding by the female mouse (that is, before HFD feeding), before administration, and 1 week, 2 weeks, 3 weeks, 4 weeks, 5 weeks, 6 weeks and 7 weeks after administration and at the end point of experiment.
3 days after the last administration, the animals were weighed and fasted for 6 hours; all experimental animals were anesthetized by intraperitoneal injection of pentobarbital sodium, non-anticoagulated whole blood was collected through the orbital venous plexus, stood at room temperature for 30 minutes, and centrifuged at 5000 rpm for 5 minutes, the serum was separated and frozen at −80° C. for the biochemical determination; and EDTA-K2 anticoagulated whole blood was collected through the orbital venous plexus and placed on wet ice for the determination of HbA1C content.
The serum sample was taken from −80° C., and the contents of ALT, AST, TG, TC, HDL-c and LDL-c in serum and HbA1C in whole blood were determined by Hitachi 7060 automatic biochemical detector, and the content of insulin was determined by enzyme-linked immunosorbent assay kit.
The mice were dissected according to procedure. After perfusion with pre-cooled normal saline, the liver was taken, photographed, weighed, soaked in 10% formalin and fixed for pathological HE staining. Liver paraffin sections of all animals were stained with HE according to KCI pathological staining standard SOP. All the stained sections were panoramically scanned by NanoZoomer Digital Pathology (S210, Hamamaci, Japan) scanner, and then observed at different magnifications by selecting different fields of view.
The mice were dissected according to procedure. After perfusion with pre-cooled normal saline, the liver was taken, photographed, weighed, soaked in 10% formalin and fixed for pathological sirius red (SR) staining. Liver paraffin sections were stained with SR according to KCI pathological staining standard SOP.

[1] = 0.05 mg/kg s.c. once every three days
[2] = 0.15 mg/kg s.c. once every three days
[3] = 0.5 mg/kg s.c. once every three days

Q: With `CNC(CCCCNC(=O)COCCOCCOCCNC(=O)COCCOCCOCCNC(=O)CCC(NC(=O)CC(=O)O)C(=O)O)C(N)=O` (centres unmarked) [BG128] as the compound, how does the Fasting blood glucose (0.05 mg/kg group, Before HFD (baseline)) read?
A: 18.28 ± 1.18 mmol/L

Q: And the Fasting blood glucose (0.05 mg/kg group, Before administration (baseline))?
A: 25.59 ± 0.91 mmol/L

Q: What about the “Ballooning lesion (score)” value [1] of the same compound?
A: 0.00 ± 0.00

Q: What about the “Inflammatory cell infiltration (score)” value [1] of the same compound?
A: 0.91 ± 0.08ª

Q: What about the “Steatosis (score)” value [1] of the same compound?
A: 0.52 ± 0.12ª

Q: And the “Total score of NAS” value [1]?
A: 1.42 ± 0.14ª

Q: What about the Fibrosis percentage [1] of the same compound?
A: 1.11 ± 0.05^a %

Q: And the “% HbAC (glycosylated hemoglobin)” value [1]?
A: 1.00 ± 0.23

Q: And the ALT [1]?
A: 73.97 ± 9.20 U/L

Q: What about the AST [1] of the same compound?
A: 155.44 ± 10.85 U/L

Q: What about the HDL-c [1] of the same compound?
A: 2.30 ± 0.09 mmol/L

Q: What about the LDL-c [1] of the same compound?
A: 0.56 ± 0.03^b mmol/L

Q: And the TC [1]?
A: 3.81 ± 0.15^c mmol/L

Q: What about the TG [1] of the same compound?
A: 1.09 ± 0.20^b mmol/L

Q: And the Fasting blood glucose (0.05 mg/kg s.c. once every three days, Administration for 1 week)?
A: 15.62 ± 1.42^a mmol/L

Q: What about the Fasting blood glucose (0.05 mg/kg s.c. once every three days, Administration for 2 weeks) of the same compound?
A: 14.13 ± 1.61^a mmol/L

Q: And the Fasting blood glucose (0.05 mg/kg s.c. once every three days, Administration for 3 weeks)?
A: 16.89 ± 1.85^a mmol/L

Q: And the Fasting blood glucose (0.05 mg/kg s.c. once every three days, Administration for 4 weeks)?
A: 12.89 ± 1.83^a mmol/L

Q: What about the Fasting blood glucose (0.05 mg/kg s.c. once every three days, Administration for 5 weeks) of the same compound?
A: 18.32 ± 1.62^a mmol/L

Q: What about the Fasting blood glucose (0.05 mg/kg s.c. once every three days, Administration for 6 weeks) of the same compound?
A: 21.82 ± 2.11^a mmol/L

Q: And the Fasting blood glucose (0.05 mg/kg s.c. once every three days, Administration for 7 weeks)?
A: 18.89 ± 1.89^a mmol/L

Q: What about the Fasting blood glucose (0.05 mg/kg s.c. once every three days, Endpoint) of the same compound?
A: 15.81 ± 1.83^a mmol/L

Q: What about the serum insulin concentration (0.05 mg/kg s.c. once every three days, FIG. 19) of the same compound?
A: decreased

Q: What about the “HbA1c % decreased by, taking the HbA1C % of the model group as the baseline value” (from here on “HbA1c % decreased by, taking the HbA1C %”) [1] of the same compound?
A: 0.97%

Q: What about the “Percentage of decrease in % HbAC” value [1] of the same compound?
A: −0.97 ± 0.23

Q: And the Fasting blood glucose (0.15 mg/kg group, Before HFD (baseline))?
A: 17.69 ± 0.81 mmol/L

Q: What about the Fasting blood glucose (0.15 mg/kg group, Before administration (baseline)) of the same compound?
A: 25.71 ± 0.91 mmol/L

Q: And the “tolerance of model animals” value [2]?
A: good tolerance

Q: What about the “Ballooning lesion (score)” value [2] of the same compound?
A: 0.00 ± 0.00ª

Q: What about the “Inflammatory cell infiltration (score)” value [2] of the same compound?
A: 0.90 ± 0.06ª

Q: What about the “Steatosis (score)” value [2] of the same compound?
A: 0.46 ± 0.13ª

Q: And the “Total score of NAS” value [2]?
A: 1.36 ± 0.15ª

Q: And the Fibrosis percentage [2]?
A: 1.10 ± 0.04^b %

Q: What about the “% HbAC (glycosylated hemoglobin)” value [2] of the same compound?
A: 1.31 ± 0.19

Q: And the ALT [2]?
A: 67.58 ± 7.73^a U/L

Q: What about the AST [2] of the same compound?
A: 152.48 ± 6.56^a U/L

Q: And the HDL-c [2]?
A: 1.83 ± 0.22 mmol/L

Q: What about the LDL-c [2] of the same compound?
A: 0.65 ± 0.10^c mmol/L

Q: What about the TC [2] of the same compound?
A: 3.25 ± 0.12^c mmol/L

Q: And the TG [2]?
A: 0.84 ± 0.12^b mmol/L

Q: What about the Fasting blood glucose (0.15 mg/kg s.c. once every three days, Administration for 1 week) of the same compound?
A: 15.43 ± 1.66^a mmol/L

Q: And the Fasting blood glucose (0.15 mg/kg s.c. once every three days, Administration for 2 weeks)?
A: 14.61 ± 1.45^a mmol/L

Q: What about the Fasting blood glucose (0.15 mg/kg s.c. once every three days, Administration for 3 weeks) of the same compound?
A: 14.83 ± 1.49^a mmol/L

Q: What about the Fasting blood glucose (0.15 mg/kg s.c. once every three days, Administration for 4 weeks) of the same compound?
A: 14.52 ± 2.09^a mmol/L

Q: What about the Fasting blood glucose (0.15 mg/kg s.c. once every three days, Administration for 5 weeks) of the same compound?
A: 15.75 ± 1.81^a mmol/L

Q: What about the Fasting blood glucose (0.15 mg/kg s.c. once every three days, Administration for 6 weeks) of the same compound?
A: 17.88 ± 2.05^a mmol/L

Q: What about the Fasting blood glucose (0.15 mg/kg s.c. once every three days, Administration for 7 weeks) of the same compound?
A: 17.26 ± 1.97^a mmol/L

Q: And the Fasting blood glucose (0.15 mg/kg s.c. once every three days, Endpoint)?
A: 16.85 ± 2.04^a mmol/L

Q: And the serum insulin concentration (0.15 mg/kg s.c. once every three days, FIG. 19)?
A: statistically significant compared with the db/db-NDJ group

Q: What about the “HbA1c % decreased by, taking the HbA1C %” value [2] of the same compound?
A: 0.66%

Q: What about the “Percentage of decrease in % HbAC” value [2] of the same compound?
A: −0.66 ± 0.19

Q: And the Fasting blood glucose (0.5 mg/kg group, Before HFD (baseline))?
A: 18.59 ± 0.88 mmol/L

Q: And the Fasting blood glucose (0.5 mg/kg group, Before administration (baseline))?
A: 25.81 ± 1.08 mmol/L

Q: What about the “tolerance of model animals” value (0.50 mg/kg s.c. once every three days) of the same compound?
A: good tolerance

Q: And the “Ballooning lesion (score)” value [3]?
A: 0.00 ± 0.00

Q: What about the “Inflammatory cell infiltration (score)” value [3] of the same compound?
A: 1.03 ± 0.05ª

Q: What about the “Steatosis (score)” value [3] of the same compound?
A: 0.33 ± 0.08ª

Q: And the “Total score of NAS” value [3]?
A: 1.36 ± 0.10ª

Q: And the Fibrosis percentage [3]?
A: 1.07 ± 0.05^c %

Q: And the “% HbAC (glycosylated hemoglobin)” value [3]?
A: 0.94 ± 0.25^a

Q: What about the ALT [3] of the same compound?
A: 58.46 ± 5.38^b U/L

Q: And the AST [3]?
A: 150.54 ± 6.26^a U/L

Q: What about the HDL-c [3] of the same compound?
A: 2.13 ± 0.13 mmol/L

Q: What about the LDL-c [3] of the same compound?
A: 0.62 ± 0.03^c mmol/L

Q: And the TC [3]?
A: 3.53 ± 0.09^c mmol/L

Q: And the TG [3]?
A: 0.88 ± 0.14^b mmol/L

Q: And the Fasting blood glucose (0.5 mg/kg s.c. once every three days, Administration for 1 week)?
A: 11.39 ± 0.86^a mmol/L

Q: And the Fasting blood glucose (0.5 mg/kg s.c. once every three days, Administration for 2 weeks)?
A: 12.82 ± 1.12^a mmol/L

Q: What about the Fasting blood glucose (0.5 mg/kg s.c. once every three days, Administration for 3 weeks) of the same compound?
A: 13.35 ± 1.37^a mmol/L

Q: And the Fasting blood glucose (0.5 mg/kg s.c. once every three days, Administration for 4 weeks)?
A: 11.39 ± 1.20^a mmol/L

Q: What about the Fasting blood glucose (0.5 mg/kg s.c. once every three days, Administration for 5 weeks) of the same compound?
A: 12.31 ± 1.47^a mmol/L

Q: What about the Fasting blood glucose (0.5 mg/kg s.c. once every three days, Administration for 6 weeks) of the same compound?
A: 12.17 ± 1.70^abd mmol/L

Q: What about the Fasting blood glucose (0.5 mg/kg s.c. once every three days, Administration for 7 weeks) of the same compound?
A: 10.45 ± 1.34^acd mmol/L

Q: And the Fasting blood glucose (0.5 mg/kg s.c. once every three days, Endpoint)?
A: 12.27 ± 1.61^a mmol/L

Q: What about the serum insulin concentration (0.5 mg/kg s.c. once every three days, FIG. 19) of the same compound?
A: statistically significant compared with the db/db-NDJ group

Q: What about the “HbA1c % decreased by, taking the HbA1C %” value [3] of the same compound?
A: 1.04%

Q: And the “Percentage of decrease in % HbAC” value [3]?
A: −1.04 ± 0.25

Q: And the “Number of animal deaths” value (Group-3/Group-5, 0.15 mg/kg s.c. once every three days)?
A: 0

Q: And the “Number of animal deaths” value (Group-4, 0.05 mg/kg s.c. once every three days)?
A: 2 (Day 45, 51)

Q: And the “Number of animal deaths” value (Group-6, 0.5 mg/kg s.c. once every three days)?
A: 0

Q: What about the “body weight after the first administration” value (Tirzepatide 0.15 mg/kg, BG128 0.05, 0.15, 0.5 mg/kg s.c., FIG. 16) of the same compound?
A: positively correlated with the administration dose

Q: And the “food intake compared with Tirzepatide” value (equal dose (0.15 mg/kg s.c.), FIG. 17)?
A: lower than that of the Trizepatide administration animals in the group with the equal dose

Q: What about the “effect on serum insulin compared with Tirzepatide” value (equal dose (0.15 mg/kg s.c.), FIG. 19) of the same compound?
A: better than that of the Tirzepatide group at an equal dose
